Experimental data as given in US10179132B2, “Composition for inducing differentiation of multipotent neural stem cells into dopaminergic neurons and method for inducing differentiation of multipotent neural stem cells into dopaminergic neurons by using the same” (INDUSTRY-ACADEMIC COOPERATION FOUNDATION, YONSEI UNIVERSITY, priority 2015, dated 2019).
Where a name gives a salt, the structure may show the parent alone.

Tests used:
mouse neural stem cells [1] = experiment: Real-time RT-PCR of neuronal / dopaminergic markers in cultured neural stem cells; format: cell-based; settings: 4 days; for Tuj1 (marker of neurons) expression / tyrosine hydroxylase (TH) expression: AS703026, AZD8330 10 μM, PD318088, Trametinib, Refametinib 1 μM; for Tuj1 (marker of neurons) expression: FIG. 8B; for tyrosine hydroxylase (TH) expression: FIG. 8C
Description: Neural stem cells were isolated from the brain of a day 14.5 mouse embryo, treated with 10 ng/ml human basic fibroblast growth factor (bFGF) (Peprotech, Princeton, N.J.) and 20 ng/ml human epidermal growth factor (EGF) (Peprotech) in a N2 culture medium, and cultured in suspension in a 25 cm^2 flask (Nunc, Pittsburgh, Pa.) for 4 days.
Neurospheres were treated with TrypLE and then separated into single cells, which were uniformly seeded into a culture dish coated with 15 μg/ml poly-L-ornithine and 10 μg/ml fibronectin. Following culture, the morphology of the cells was observed.
The N2 culture medium was Dulbecco's modified Eagle's medium (DMEM)/F12 (1:1) supplemented with 100 μM putrescine, 30 nM selenite, 20 nM progesterone, 1.55 mg/ml d-(+)-glucose, 25 μg/ml insulin, […] apo-transferrin, 0.5 mM alanyl glutamine, 100 IU/ml penicillin, and 100 μg/ml streptomycin.
(§1) Mouse neural stem cells were cultured in accordance with the procedure of Example 1. […] The cells were cultured for 4 days.
(§2) Neurospheres were treated with TrypLE and separated into single cells, which were uniformly seeded into a culture dish coated with 15 μg/ml poly-L-ornithine and 10 μg/ml fibronectin. Following culture, the morphology of the cells was observed.
To this end, real-time (RT) PCR analysis was performed on neuron-specific markers. On day 4 after in vitro differentiation, mRNA expression was identified. The numbers in the graph indicate average values of mRNA expression levels relative to the respective controls from real-time PCR analyses in triplicate.
(§3) In this example, it was confirmed whether dopaminergic neurons were differentiated from neural stem cells.

mouse neural stem cells [2] = experiment: Morphological analysis of treated neural stem cells; format: cell-based; settings: AS703026, AZD8330 10 μM; PD318088, Trametinib, Refametinib 1 μM; 4 days; FIG. 8A
Description: as §1, §2, §3

neural stem cells = experiment: Differentiation of neural stem cells into dopaminergic neurons (general statements, no separate method); format: cell-based, mouse; settings: MEK 1 inhibitor, no MEK 2 inhibition
mouse neural stem cells [3] = experiment: Immunocytochemical analysis of marker expression in cultured neural stem cells; format: cell-based; settings: 10 μM, 4 days
Description: Mouse neural stem cells were cultured in accordance with the procedure of Example 1. […] The cells were cultured for 4 days. Neurospheres were treated with TrypLE and separated into single cells, which were uniformly seeded into a culture dish coated with 15 μg/ml poly-L-ornithine and 10 μg/ml fibronectin. Following culture, the morphology of the cells was observed. […] In this example, it was confirmed whether dopaminergic neurons were differentiated from neural stem cells. To this end, immunoblot analysis and immunocytochemical analysis were performed on the neural progenitor cells (undifferentiated; UD) cultured in Example 1, the differentiated cells (D) cultured in Comparative Example 1, and the AS703026-treated cells (UD+AS) cultured in Example 2, and the results were compared. The immunocytochemical analysis was performed by the following procedure. First, the cells were fixed in 4% para-formaldehyde at room temperature for 10 min, washed with PBS, and incubated with 0.2% Triton X-100 at room temperature for 15 min. After blocking with 10% BSA at room temperature for 1 h, the cells were incubated with anti-Tuj1 (Covance, Princeton, N.J.), anti-GFAP (Biogenex, San Ramon, Calif.), anti-MBP (Abcam), anti-Ki67 (Abcam), anti-p-ERK1/2 or anti-TH antibodies at 4° C. overnight, and cultured using Alexa Fluor 488- or Alexa Fluor 555-conjugated IgG secondary antibodies (Molecular Probes, Eugene, Oreg.) at room temperature for 1 h. Subsequently, the cells were cultured with 1 μg/ml 4′,6-diamidino-2-phenylindole (DAPI) for 5 min, the inlet was sealed with a coverslip, and the cells were observed using a confocal microscope. FIGS. 4 and 5 show the results of immunoblot analysis (FIG. 4) and immunocytochemical analysis (FIG. 5) for the neural progenitor cells (undifferentiated; UD) cultured in Example 1, the differentiated cells (D) cultured in Comparative Example 1, and the AS703026-treated cells (UD+AS) cultured in Example 2 to determine whether dopaminergic neurons were differentiated from the neural stem cells.

mouse neural stem cells [4] = experiment: Immunoblot analysis of marker expression in cultured neural stem cells; format: cell-based
Description: Mouse neural stem cells were cultured in accordance with the procedure of Example 1. […] The cells were cultured for 4 days. Neurospheres were treated with TrypLE and separated into single cells, which were uniformly seeded into a culture dish coated with 15 μg/ml poly-L-ornithine and 10 μg/ml fibronectin. Following culture, the morphology of the cells was observed. In this example, it was confirmed whether dopaminergic neurons were differentiated from neural stem cells. To this end, immunoblot analysis and immunocytochemical analysis were performed on the neural progenitor cells (undifferentiated; UD) cultured in Example 1, the differentiated cells (D) cultured in Comparative Example 1, and the AS703026-treated cells (UD+AS) cultured in Example 2, and the results were compared. The immunoblot analysis was performed by the following procedure. First, the cells were washed with ice-cold phosphate-buffered saline (PBS) and lysed with 1×RIPA buffer (10 mM HEPES, 1.5 mM MgCl2, 10 mM KCl, 0.01 M DTT, protease inhibitors, pH 7.9). The cell homogenate was heated at 100° C. for 10 min and subjected to 10-12% SDS-polyacrylamide gel electrophoresis. Proteins were electrophoretically transferred to a nitrocellulose membrane and blocked with 5% non-fat dry milk in TBS-Tween 20 (0.1%, v/v) for 1 h. Western blotting was performed using anti-Tuj1, anti-GFAP or anti-MBP antibodies and successively horseradish peroxidase-conjugated anti-rabbit or anti-mouse IgG secondary antibodies. The protein bands were visualized using enhanced chemiluminescence (ECL, lab made) and detected with LAS-3000 (FUJIFILM, Tokyo, Japan). FIGS. 4 and 5 show the results of immunoblot analysis (FIG. 4) and immunocytochemical analysis (FIG. 5) for the neural progenitor cells (undifferentiated; UD) cultured in Example 1, the differentiated cells (D) cultured in Comparative Example 1, and the AS703026-treated cells (UD+AS) cultured in Example 2 to determine whether dopaminergic neurons were differentiated from the neural stem cells. […] The AS703026-treated cells were cultured in the same manner as in Example 2. […]

mouse neural stem cells [5] = experiment: Cell cycle analysis by PI staining and flow cytometry; format: cell-based; settings: 10 μM, 4 days; PI staining; FIG. 2C
Description: Specifically, the cell cycles were analyzed by the following procedure. First, the cells (Example 1, Example 2, and Comparative Example 1) were washed twice with cold PBS and fixed in cold 70% ethanol for 30 min. The ethanol was removed by centrifugation, the cells were suspended, and the number of the cells was adjusted to 10^6/ml. The cells were washed twice with PBS, treated with 50 μg/ml propidium iodide (PI) at room temperature in the presence of RNase, and cultured for 30 min. Finally, the number of the cells was counted using a FACS Calibur flow cytometer (BD Biosciences, USA). Apoptosis was analyzed as follows. The cells were washed twice with cold PBS, treated with propidium iodide (PI) and Annexin V FITC at room temperature, and cultured for 15 min. PI and FITC fluorescence intensities were measured using a FACS flow cytometer. Data were analyzed with the Cell-quest FACS analysis software (BD Biosciences). The results are shown in FIGS. 2A, 2B, 2C, 3A, 3B and 3C. FIGS. 2A, 2B, 2C, 3A, 3B and 3C show the results of flow cytometry for the neural progenitor cells (undifferentiated; UD) cultured in Example 1, the differentiated cells (D) cultured in Comparative Example 1, and the AS703026-treated cells (UD+AS) cultured in Example 2 to identify the cycles of the cells. […]

mouse neural stem cells [6] = experiment: Apoptosis analysis by annexin-V/PI flow cytometry; format: cell-based; settings: 10 μM, 4 days
Description: Finally, the number of the cells was counted using a FACS Calibur flow cytometer (BD Biosciences, USA). Apoptosis was analyzed as follows. The cells were washed twice with cold PBS, treated with propidium iodide (PI) and Annexin V FITC at room temperature, and cultured for 15 min. PI and FITC fluorescence intensities were measured using a FACS flow cytometer. Data were analyzed with the Cell-quest FACS analysis software (BD Biosciences). The results are shown in FIGS. 2A, 2B, 2C, 3A, 3B and 3C. FIGS. 2A, 2B, 2C, 3A, 3B and 3C show the results of flow cytometry for the neural progenitor cells (undifferentiated; UD) cultured in Example 1, the differentiated cells (D) cultured in Comparative Example 1, and the AS703026-treated cells (UD+AS) cultured in Example 2 to identify the cycles of the cells. Specifically, FIGS. 2A, 2B and 2C are histograms showing the results of flow cytometry for the cells stained with PI. FIGS. 3A, 3B and 3C are scatter plot diagrams showing the results of flow cytometry for the cells stains with annexin-V/PI.

[7] = tested on: ventral midbrains of embryos of pregnant mouse models; experiment: Intraperitoneal administration to pregnant mice; marker expression in embryonic ventral midbrains (immunocytochemistry, RT-PCR); format: in vivo
Description: After the same amount of distilled water (D.W) as control was administered intraperitoneally to pregnant mouse models at 10.5 days of gestation daily for 4 consecutive days, the expression levels of the markers in the ventral midbrains, where dopaminergic neurons were most abundantly distributed, were analyzed. The control is marked as “Vehicle” in FIGS. 6 and 7.
Proteins and mRNAs isolated from the brains of the sacrificed embryos were analyzed by RT-PCR.

[8] = i.p. to pregnant mice from 10.5 days of gestation, daily for 4 days, vs distilled water

O=C(NOCC(O)CO)c1cc(Br)c(F)c(F)c1Nc1ccc(I)cc1F (centres unmarked) [PD318088]
Tuj1 (marker of neurons) expression (mouse neural stem cells [1]): expressed only
tyrosine hydroxylase (TH) expression (mouse neural stem cells [1]): expressed only
morphology of treated cells (mouse neural stem cells [2]): neuron-like morphological changes

COc1cccc(-c2cc(=O)c3ccccc3o2)c1N [PD98059]
induction of differentiation of neural stem cells into dopaminergic neurons (neural stem cells): does not induce substantial differentiation

COc1cc(F)c(F)c(Nc2ccc(I)cc2F)c1NS(=O)(=O)C1(C[C@H](O)CO)CC1 [Refametinib]
Tuj1 (marker of neurons) expression (mouse neural stem cells [1]): expressed only
tyrosine hydroxylase (TH) expression (mouse neural stem cells [1]): expressed only
morphology of treated cells (mouse neural stem cells [2]): neuron-like morphological changes

Cc1cc(C(=O)NOCCO)c(Nc2ccc(I)cc2F)n(C)c1=O [AZD8330]
Tuj1 (marker of neurons) expression (mouse neural stem cells [1]): expressed only
tyrosine hydroxylase (TH) expression (mouse neural stem cells [1]): expressed only
morphology of treated cells (mouse neural stem cells [2]): neuron-like morphological changes

O=C(NC[C@H](O)CO)c1ccncc1Nc1ccc(I)cc1F [AS703026, N-[(2S)-2,3-dihydroxypropyl]-3-[(2-fluoro-4-iodophenyl)amino]isonicotinamide hydrochloride]
expression level of GFAP (astrocyte differentiation factor) (mouse neural stem cells [1]; 10 μM, compared with Tuj1): lower than that of Tuj1
expression level of MBP (oligodendrocyte differentiation factor) (mouse neural stem cells [1]; 10 μM, compared with Tuj1): lower than that of Tuj1
expression level of Tuj1 (neuronal differentiation factor), times higher than UD and D cells (mouse neural stem cells [1]; 10 μM, vs undifferentiated (UD) and differentiated (D) cells, FIG. 1A): at least 10 times
Tuj1 (marker of neurons) expression (mouse neural stem cells [1]): expressed only
tyrosine hydroxylase (TH) expression (mouse neural stem cells [1]): expressed only
immune response to GFAP (mouse neural stem cells [3]): No immune responses
immune response to MBP (mouse neural stem cells [3]): No immune responses
number of clusters of dopaminergic neurons from which neurites extended outward (mouse neural stem cells [3]; FIG. 1B): increase
number of dopaminergic neurons differentiated (Tuj1 immunocytochemistry) (mouse neural stem cells [3]; FIG. 1B): considerable increase
tyrosine hydroxylase (TH) expression, immunocytochemistry (mouse neural stem cells [3]; vs UD and D cells, FIG. 5): expressed only
expression pattern of TH compared with cells of Example 2 (10 μM) (mouse neural stem cells [4]; 1 μM (UD+AS, 1)): similar
expression pattern of TH compared with cells of Example 2 (10 μM) (mouse neural stem cells [4]; 5 μM (UD+AS, 5)): similar
tyrosine hydroxylase (TH) expression, immunoblot (mouse neural stem cells [4]; 10 μM, 4 days, vs UD and D cells, FIG. 4): expressed only
cell cycle (mouse neural stem cells [5]): arrested in the G0/G1 phase
apoptosis (mouse neural stem cells [6]): does not induce apoptosis
number of dopaminergic neurons formed in embryo brains vs non-administered animals ([7]; i.p. to pregnant mice at 10.5 days of gestation): approximately twice as large
expression level of TH in embryo brains vs control [7, 8]: significantly higher
expression level of Tuj1 in embryo brains vs control [7, 8]: significantly higher
immune response to GFAP in embryo brains ([7]; i.p. to pregnant mice, 4 days): No immune responses
immune response to MBP in embryo brains ([7]; i.p. to pregnant mice, 4 days): No immune responses
differentiation into dopaminergic neurons in embryos (RT-PCR) ([7]; i.p. to pregnant mice, 4 days, FIG. 7): increased differentiation
morphology of treated cells (mouse neural stem cells [2]): neuron-like morphological changes
